Measured values from article PMC9889419 (Pharmacological Reports, 2022).
Structures can show the parent of a compound that is named as a salt.

Key:
D3 = D3 (Homo sapiens, UniProt P35462); assay: Radioligand binding
Description: (§1) Radioligand binding. Radioligand binding assays were performed at Eurofins CEREP (France). The results are expressed as a percent of control specific binding (measured specific binding*100/control specific binding) and as a percent inhibition of control specific binding (100-(measured specific binding*100)/control specific binding) obtained in the presence of the test compounds. The IC50 values (concentration causing a half-maximal inhibition of control specific binding) and Hill coefficients (nH) were determined by non-linear regression analysis of the competition curves generated with mean replicate values using Hill equation curve fitting (Y = D + [A-D]/[1 + (C/C50)^nH], where Y = specific binding, A = left asymptote of the curve, D = right asymptote of the curve, C = compound concentration, C50 = IC50, and nH = slope factor). This analysis was performed using software developed at Cerep (Hill software) and validated by comparison with data generated by the commercial software SigmaPlot® 4.0 for Windows® (© 1997 by SPSS Inc.). The inhibition constants (Ki) were calculated using the Cheng Prusoff equation (Ki = IC50/[1 + L/KD], where L = concentration of radioligand in the assay, and KD = affinity of the radioligand for the receptor). A scatchard plot is used to determine the Kd.

D4.4 = target: T1, D4.4 (Homo sapiens, UniProt P21917); assay: Radioligand binding
T1 sequence (P21917 1-419): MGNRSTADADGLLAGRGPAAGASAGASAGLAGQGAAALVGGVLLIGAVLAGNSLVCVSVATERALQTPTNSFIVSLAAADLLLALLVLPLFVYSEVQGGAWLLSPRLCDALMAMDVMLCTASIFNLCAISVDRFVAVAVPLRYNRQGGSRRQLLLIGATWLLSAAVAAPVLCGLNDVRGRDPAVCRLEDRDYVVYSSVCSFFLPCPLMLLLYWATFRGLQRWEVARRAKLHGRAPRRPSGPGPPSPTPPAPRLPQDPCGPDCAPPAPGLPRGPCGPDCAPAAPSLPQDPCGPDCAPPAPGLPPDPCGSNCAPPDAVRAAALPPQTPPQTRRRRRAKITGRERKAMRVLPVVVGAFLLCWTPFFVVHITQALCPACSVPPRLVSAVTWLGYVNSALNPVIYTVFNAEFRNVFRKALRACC
Description: as §1

5-HT2A = 5-HT2A (Homo sapiens, UniProt P28223); assay: Radioligand binding
5-HT2A, sequence (P28223 whole entry): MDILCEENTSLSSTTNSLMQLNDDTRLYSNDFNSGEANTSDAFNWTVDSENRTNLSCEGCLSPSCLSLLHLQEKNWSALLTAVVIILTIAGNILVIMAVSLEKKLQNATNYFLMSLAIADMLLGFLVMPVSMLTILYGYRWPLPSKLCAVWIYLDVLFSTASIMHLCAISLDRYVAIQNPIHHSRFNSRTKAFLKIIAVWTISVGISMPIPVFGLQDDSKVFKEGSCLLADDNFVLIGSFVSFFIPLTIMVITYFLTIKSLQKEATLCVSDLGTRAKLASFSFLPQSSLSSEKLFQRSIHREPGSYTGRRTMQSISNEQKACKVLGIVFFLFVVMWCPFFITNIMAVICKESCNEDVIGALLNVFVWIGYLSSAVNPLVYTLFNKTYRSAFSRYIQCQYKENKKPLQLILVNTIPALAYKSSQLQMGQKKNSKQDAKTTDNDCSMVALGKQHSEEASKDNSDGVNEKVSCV
Description: as §1

5-HT transporter = 5-HT transporter (Homo sapiens, UniProt P31645); assay: Radioligand binding
5-HT transporter, sequence (P31645 whole entry): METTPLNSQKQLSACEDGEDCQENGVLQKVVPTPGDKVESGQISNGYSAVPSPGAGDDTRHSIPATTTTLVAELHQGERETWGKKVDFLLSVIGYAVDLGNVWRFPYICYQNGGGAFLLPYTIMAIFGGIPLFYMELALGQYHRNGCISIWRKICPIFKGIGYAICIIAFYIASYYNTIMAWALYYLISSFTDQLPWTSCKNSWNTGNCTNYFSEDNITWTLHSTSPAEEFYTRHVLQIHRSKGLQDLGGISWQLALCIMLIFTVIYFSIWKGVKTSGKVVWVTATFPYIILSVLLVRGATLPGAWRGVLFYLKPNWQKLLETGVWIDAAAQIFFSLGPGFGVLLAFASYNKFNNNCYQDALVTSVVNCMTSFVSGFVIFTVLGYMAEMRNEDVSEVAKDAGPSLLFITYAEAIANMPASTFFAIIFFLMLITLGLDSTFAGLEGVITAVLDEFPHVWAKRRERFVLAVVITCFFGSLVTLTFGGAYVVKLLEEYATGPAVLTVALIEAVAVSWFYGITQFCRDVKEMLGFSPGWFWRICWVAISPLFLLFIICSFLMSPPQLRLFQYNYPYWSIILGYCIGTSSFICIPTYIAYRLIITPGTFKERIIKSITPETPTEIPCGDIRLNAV
Description: as §1

5-HT2B = 5-HT2B (Homo sapiens, UniProt P41595); assay: Radioligand binding
5-HT2B, sequence (P41595 whole entry): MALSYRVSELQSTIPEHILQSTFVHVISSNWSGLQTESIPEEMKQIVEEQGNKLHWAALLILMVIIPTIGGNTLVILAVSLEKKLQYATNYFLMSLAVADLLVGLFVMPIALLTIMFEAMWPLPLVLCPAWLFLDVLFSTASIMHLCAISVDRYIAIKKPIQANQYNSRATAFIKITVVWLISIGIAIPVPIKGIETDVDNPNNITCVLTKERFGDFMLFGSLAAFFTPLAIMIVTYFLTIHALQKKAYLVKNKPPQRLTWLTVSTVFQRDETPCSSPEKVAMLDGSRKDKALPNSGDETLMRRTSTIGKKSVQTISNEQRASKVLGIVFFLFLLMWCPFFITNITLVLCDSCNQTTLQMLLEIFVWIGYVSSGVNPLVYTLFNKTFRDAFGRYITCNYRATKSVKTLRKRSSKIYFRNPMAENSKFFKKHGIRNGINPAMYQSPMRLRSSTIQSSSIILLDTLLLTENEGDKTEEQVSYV
Description: as §1

mice = assay: Bicuculline-induced seizures; type: in vivo; conditions: ip
[1] = tested on: Salmonella enterica sv. Typhimurium TA 98; assay: Ames test
Description: The test was performed according to a modified pre-incubation method [34]. The test compound was dissolved in DMSO and mixed with 20% (final concentration) cytochrome P450-enriched rat liver S9 post-mitochondrial fraction (20% w/v liver homogenate in 0.25 M Sucrose) in a phosphate buffer and added to an overnight bacterial culture. The mixture was divided into two samples and NADPH added to one of the samples to determine if the test compound requires cytochrome P450 bioactivation to be mutagenic. Both reactions (± NADPH) were incubated at 37 °C for 30 min and then added to a top agar solution containing 0.6% agar, 0.05 mM histidine and 0.05 mM biotin and plated on minimal glucose agar plates. Revertant colonies were counted after a 48 h-incubation at 37 °C. […] Acridine orange at 0.02 mM was also included as a positive control.

MTT assay = type: cell-based, murine; conditions: mouse, astrocyte cell line (ATCC CRL-2541); 250 µM; read-out: cell viability compared to control
Description: Cells were seeded at a density of 1 × 10^4 cells per well in 96 well plates. […] Next, Crystal Dissolving Solution (Cayman) was added to each well.

in vivo = conditions: rat, ip
[2] = 0.003 μM, read-out: % of control specific binding
[3] = 0.03 μM, read-out: % of control specific binding
[4] = 0.3 μM, read-out: % of control specific binding
[5] = 3 μM, read-out: % of control specific binding
[6] = 30 μM, read-out: % of control specific binding
[7] = 0.01 μM, read-out: % of control specific binding
[8] = 0.1 μM, read-out: % of control specific binding
[9] = 1 μM, read-out: % of control specific binding
[10] = 10 μM, read-out: % of control specific binding
[11] = 100 μM, read-out: % of control specific binding

D3, sequence (P35462 whole entry): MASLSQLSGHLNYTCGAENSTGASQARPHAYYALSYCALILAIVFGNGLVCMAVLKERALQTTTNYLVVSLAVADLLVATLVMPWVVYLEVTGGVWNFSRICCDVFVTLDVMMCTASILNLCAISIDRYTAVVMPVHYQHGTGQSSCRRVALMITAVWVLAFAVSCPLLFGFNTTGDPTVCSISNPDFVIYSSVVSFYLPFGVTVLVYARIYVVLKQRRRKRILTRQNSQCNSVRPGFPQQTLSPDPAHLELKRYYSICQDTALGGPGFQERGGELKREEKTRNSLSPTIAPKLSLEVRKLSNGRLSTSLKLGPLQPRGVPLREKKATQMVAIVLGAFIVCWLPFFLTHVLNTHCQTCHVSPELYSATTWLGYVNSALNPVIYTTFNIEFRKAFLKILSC

In the case of `CCC(CO)NCCOc1c(C)cccc1Cl` (centres unmarked) [Compound 4, R,S-2-((2-(2-chloro-6-methylphenoxy)ethyl)amino)butan-1-ol], the “% of control specific binding” value (D3; 100 μM) is reported as 11.9%, the “% of control specific binding” value (D4.4; 100 μM) is reported as 26.6% and the “% of control specific binding” value (5-HT2A; 100 μM) is reported as 37.1%. For the same molecule, the “% of control specific binding” value (5-HT transporter; 100 μM) was 5.1%, the “% of control specific binding” value (5-HT2B; 100 μM) was 2.3% and the “Bicuculline-induced seizures ED50” value (mice) was over 70 mg/kg. The “% of benzo[a]pyrene (+NADPH) control, + NADPH, Sample 1” value ([1]; 0.10 mM) was 7.8%, the “% of benzo[a]pyrene (+NADPH) control, + NADPH, Sample 2” value ([1]; 0.10 mM) was 7.8% and the “% of benzo[a]pyrene (+NADPH) control, − NADPH, Sample 1” value ([1]; 0.10 mM) was 5.5%. For the same molecule, the “% of benzo[a]pyrene (+NADPH) control, − NADPH, Sample 2” value ([1]; 0.10 mM) was 7.4%, the “% of benzo[a]pyrene (+NADPH) control, + NADPH, Sample 1” value ([1]; 0.20 mM) was 5.2% and the “% of benzo[a]pyrene (+NADPH) control, + NADPH, Sample 2” value ([1]; 0.20 mM) was 7.4%. The “% of benzo[a]pyrene (+NADPH) control, − NADPH, Sample 1” value ([1]; 0.20 mM) was 5.4%, the “% of benzo[a]pyrene (+NADPH) control, − NADPH, Sample 2” value ([1]; 0.20 mM) was 5.3% and the “% of benzo[a]pyrene (+NADPH) control, + NADPH, Sample 1” value ([1]; 0.50 mM) was 5.2%. For the same molecule, the “% of benzo[a]pyrene (+NADPH) control, + NADPH, Sample 2” value ([1]; 0.50 mM) was 7%, the “% of benzo[a]pyrene (+NADPH) control, − NADPH, Sample 1” value ([1]; 0.50 mM) was 4.9% and the “% of benzo[a]pyrene (+NADPH) control, − NADPH, Sample 2” value ([1]; 0.50 mM) was 6.7%. For the same molecule, the mutagenicity ([1]; 0.1–0.5 mM, compared to DMSO solvent control) was “non-mutagenic”.

Work on `CCC(CO)NCCOc1c(C)cccc1Cl` (centres unmarked) [KM-408, R,S-2-((2-(2-chloro-6-methylphenoxy)ethyl)amino)butan-1-ol hydrochloride] yielded a viability at 24 h, 250 µM (MTT assay) of 81%, a TD50 (in vivo) of 54.3 mg/kg and an IC50 (D3) of 22 µM. It also gave a Ki (D3) of 4.9 µM, a remaining activity at 0.003 µM (D3; [2]) of 104% and a remaining activity at 0.03 µM (D3; [3]) of 103%. For the same molecule, the remaining activity at 0.3 µM (D3; [4]) was 102%, the remaining activity at 3 µM (D3; [5]) was 95.3% and the remaining activity at 30 µM (D3; [6]) was 42.5%. For the same molecule, the IC50 (D4.4) was 66 µM, the Ki (D4.4) was 25 µM and the remaining activity at 0.01 µM (D4.4; [7]) was 100%. The remaining activity at 0.1 µM (D4.4; [8]) was 101%, the remaining activity at 1 µM (D4.4; [9]) was 97.6% and the remaining activity at 10 µM (D4.4; [10]) was 87.9%. It also gave a remaining activity at 100 µM (D4.4; [11]) of 39.4%, an IC50 (5-HT2A) of 55 µM and a Ki (5-HT2A) of 30 µM. For the same molecule, the remaining activity at 0.1 µM (5-HT2A; [8]) was 104%, the remaining activity at 1 µM (5-HT2A; [9]) was 95% and the remaining activity at 3 µM (5-HT2A; [5]) was 94.1%. For the same molecule, the remaining activity at 10 µM (5-HT2A; [10]) was 85.1%, the remaining activity at 100 µM (5-HT2A; [11]) was 36.9% and the IC50 (5-HT transporter) was 3.6 µM. It also gave a Ki (5-HT transporter) of 1700 nM, a remaining activity at 0.003 µM (5-HT transporter; [2]) of 105% and a remaining activity at 0.03 µM (5-HT transporter; [3]) of 112%. The remaining activity at 0.3 µM (5-HT transporter; [4]) was 92.8%, the remaining activity at 3 µM (5-HT transporter; [5]) was 61% and the remaining activity at 30 µM (5-HT transporter; [6]) was 11.5%. It also gave an IC50 (5-HT2B) of 2400 nM, a Ki (5-HT2B) of 1200 nM and a remaining activity at 0.001 µM (5-HT2B; 0.001 μM, read-out: % of control specific binding) of 130%. It also gave a remaining activity at 0.01 µM (5-HT2B; [7]) of 121%, a remaining activity at 0.1 µM (5-HT2B; [8]) of 103% and a remaining activity at 1 µM (5-HT2B; [9]) of 88%. It also gave a remaining activity at 10 µM (5-HT2B; [10]) of 28.3%.
